The values below come from patent publication US20230227427A1, “IL-17A MODULATORS” (SANOFI, priority 2010, published 2023).

SMILES strings stand for the structures.

The target of the first assay is T1, human recombinant IL-17A (Homo sapiens, UniProt Q16552).
T1 construct: purchased R&D Systems 7955-IL/CF
T1 sequence (Q16552 24-155): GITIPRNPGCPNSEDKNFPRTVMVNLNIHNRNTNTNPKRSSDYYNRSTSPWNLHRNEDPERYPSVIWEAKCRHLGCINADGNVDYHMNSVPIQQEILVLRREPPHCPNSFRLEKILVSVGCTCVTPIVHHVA
The assay is described as follows: IL-17A AlphaLISA assay (block binding of IL-17A to its receptor IL-17RA). To be noted: compounds pre-incubated with the IL-17A for 30 min (indicated by * in Table A); read-out: AlphaLISA pIC50 (converted). Here is the method: The ability of the compounds to block binding of IL-17A to its receptor, IL-17RA, was analysed in a competition assay using AlphaLISA technology (Perkin Elmer). The assay is a bead based AlphaLISA where the IL-17RA is captured on the acceptor bead via an Fc tag and IL-17A is captured on the streptavidin donor bead via a biotinylated anti-IL17A antibody.
Assay buffer was prepared by adding 0.05% Tween-20 (v/v) and 0.1% BSA to Phosphate Buffered Saline (PBS). The assay was carried out in 384-well white low volume plates (Corning 4512). 10 µL of a 7.5 nM stock of human recombinant IL-17A (R&D Systems 7955-IL/CF) diluted in assay buffer was dispensed into the assay plate and compounds or DMSO vehicle control were added in a volume of 75 nL using a D300 dispenser (Hewlett Packard). The compounds were pre-incubated with the IL-17A for 24 h at room temperature (or for 30 min, where indicated by * in Table A below) prior to addition of 5 μL of a 5 nM stock of human recombinant IL-17RA/Fc chimera (R&D Systems 177-IR-100) diluted in assay buffer. The IL-17A was incubated with the receptor for a further 90 minutes at room temperature before addition of 5 μL of a mixture of anti-human Fc IgG acceptor beads (75 μg/mL, Perkin Elmer AL103C) and anti-IL-17A biotin conjugated antibody (5 nM, Enzo Life Sciences, ENZ-ABS278-0100) in assay buffer. After a further 30 min incubation at room temperature, 5 μL of streptavidin donor beads ([…], Perkin Elmer 6760002S) were added and the plate was incubated for 3 h in the dark.
The luminescence signal was measured using an Enspire plate reader (Perkin Elmer) with excitation at 680 nm and emission at 615 nm. Data were analysed using GraphPad Prism and fitted to a 4-parameter logistic equation. The IC50 values were calculated using the DMSO vehicle as the negative control and a high concentration (6 μM) of a reference IL-17A inhibitor as the positive control.
Activity of the Example compounds is reported as a PIC50 value in Table A.
As for `Cc1cnn(C)c1-c1ccc(NC(=O)[C@@H](NC(=O)c2conc2C(F)(F)F)[C@H]2CC[C@H](C)CC2)nc1` [Example 194, N—((S)-2-((5-(1,4-dimethyl-1H-pyrazol-5-yl)pyridin-2-yl)amino)-1-((1r,4S)-4-methylcyclohexyl)-2-oxoethyl)-3-(trifluoromethyl)isoxazole-4-carboxamide], the IC50 was 158 nM.

On to `Cc1noc(C)c1-c1ccc(NC(=O)C(NC(=O)c2ccnn2C)C2CCCCCCC2)nc1` (centres unmarked) [Example 105, N-(1-Cyclooctyl-2-((5-(3,5-dimethylisoxazol-4-yl)pyridin-2-yl)amino)-2-oxoethyl)-1-methyl-1H-pyrazole-5-carboxamide], for which the IC50 is 158 nM.

On to `Cc1cnn(C)c1-c1ccc(NC(=O)[C@@H](NC(=O)c2conc2C(C)C)[C@H]2CC[C@H](C)CC2)nc1` [Example 191, N—((S)-2-((5-(1,4-dimethyl-1H-pyrazol-5-yl)pyridin-2-yl)amino)-1-((1r,4S)-4-methylcyclohexyl)-2-oxoethyl)-3-isopropylisoxazole-4-carboxamide], for which the IC50 is 39.8 nM.

Consider `Cc1noc(C)c1-c1cnc(NC(=O)[C@@H](NC(=O)c2ccnn2C)C2CCCCCC2)cn1` [Example 158, (S)—N-(1-cycloheptyl-2-((5-(3,5-dimethylisoxazol-4-yl)pyrazin-2-yl)amino)-2-oxoethyl)-1-methyl-1H-pyrazole-5-carboxamide], for which the IC50 is 631 nM.

With `Cc1cnn(C)c1-c1ccc(NC(=O)C(NC(=O)c2ccnn2C)C2CC3CCC2C3)nc1` (centres unmarked) [Example 184, N-(1-(bicyclo[2.2.1]heptan-2-yl)-2-((5-(1,4-dimethyl-1H-pyrazol-5-yl)pyridin-2-yl)amino)-2-oxoethyl)-1-methyl-1H-pyrazole-5-carboxamide], the IC50 was 251 nM.

For the molecule `Cc1noc(C)c1-c1ccc(NC(=O)[C@@H](NC(=O)c2ccnn2C)C2CCCCC2)nc1` [Example 129, (S)—N-(1-Cyclohexyl-2-((5-(3,5-dimethylisoxazol-4-yl)pyridin-2-yl)amino)-2-oxoethyl)-1-methyl-1H-pyrazole-5-carboxamide], the IC50 is 316 nM.

Turning to `Cc1n[nH]c(C)c1-c1ccc(NC(=O)[C@@H](NC(=O)c2cnnn2C)C2CCCCCC2)cn1` [Example 209, (S)—N-(1-cycloheptyl-2-((6-(3,5-dimethyl-1H-pyrazol-4-yl)pyridin-3-yl)amino)-2-oxoethyl)-1-methyl-1H-1,2,3-triazole-5-carboxamide], the IC50 is 794 nM.

On to `Cc1cnn(C)c1-c1ccc(NC(=O)C(NC(=O)c2ccnn2C)[C@H]2CC[C@H](C(F)(F)F)CC2)nc1` (some centres unmarked) [Example 185, N-(2-((5-(1,4-dimethyl-1H-pyrazol-5-yl)pyridin-2-yl)amino)-2-oxo-1-((1r,4r)-4-(trifluoromethyl)cyclohexyl)ethyl)-1-methyl-1H-pyrazole-5-carboxamide], for which the IC50 was 631 nM.

For the molecule `Cc1cnn(C)c1-c1ccc(NC(=O)[C@@H](NC(=O)c2ccnn2C)[C@H]2CC[C@H](C)CC2)cn1` [Example 145, N—((S)-2-((6-(1,4-dimethyl-1H-pyrazol-5-yl)pyridin-3-yl)amino)-1-((1r,4S)-4-methylcyclohexyl)-2-oxoethyl)-1-methyl-1H-pyrazole-5-carboxamide], the IC50 is 398 nM.

As for `CCc1nocc1C(=O)N[C@H](C(=O)Nc1ccc(-c2c(Cl)cnn2C)cn1)[C@H]1CC[C@H](C)CC1` [Example 201, N—((S)-2-((5-(4-chloro-1-methyl-1H-pyrazol-5-yl)pyridin-2-yl)amino)-1-((1r,4S)-4-methylcyclohexyl)-2-oxoethyl)-3-ethylisoxazole-4-carboxamide], the IC50 is 79.4 nM.

Turning to `Cn1nccc1C(=O)N[C@H](C(=O)Nc1ccc(-c2c(Cl)cnn2C)cn1)C1CCCCCC1` [Example 174, (S)—N-(2-((5-(4-chloro-1-methyl-1H-pyrazol-5-yl)pyridin-2-yl)amino)-1-cycloheptyl-2-oxoethyl)-1-methyl-1H-pyrazole-5-carboxamide], the IC50 was 158 nM.

With `Cc1n[nH]c(C)c1-c1ccc(NC(=O)C(NC(=O)c2ccnn2C)C2CCCCCCC2)cc1` (centres unmarked) [Example 104, N-(1-Cyclooctyl-2-((4-(3,5-dimethyl-1H-pyrazol-4-yl)phenyl)amino)-2-oxoethyl)-1-methyl-1H-pyrazole-5-carboxamide], the IC50 was 79.4 nM.

The assay is the same for the next values; noted with them: compounds pre-incubated with the IL-17A for 24 h at room temperature; read-out: AlphaLISA pIC50 (converted).
Consider `Cc1[nH]ncc1-c1ccc(NC(=O)[C@@H](NC(=O)c2ccnn2C)C(c2ccccc2)c2ccccc2)cc1` [Example 74, (S)-1-methyl-N-(1-((4-(5-methyl-1H-pyrazol-4-yl)phenyl)amino)-1-oxo-3,3-diphenylpropan-2-yl)-1H-pyrazole-5-carboxamide], for which the IC50 is 31.6 nM.

With `Cc1cncc(C)c1-c1ccc(NC(=O)[C@@H](NC(=O)c2ccnn2C)C(c2ccccc2)c2ccccc2)nc1` [Example 73, (S)—N-(1-((3′,5′-dimethyl-[3,4′-bipyridin]-6-yl)amino)-1-oxo-3,3-diphenylpropan-2-yl)-1-methyl-1H-pyrazole-5-carboxamide], the IC50 is 25.1 nM.

As for `Cn1nccc1C(=O)N[C@H](C(=O)Nc1ccc(-c2ccncc2C#N)cc1)C(c1ccccc1)c1ccccc1` [Example 43, (S)—N-(1-((4-(3-cyanopyridin-4-yl)phenyl)amino)-1-oxo-3,3-diphenylpropan-2-yl)-1-methyl-1H-pyrazole-5-carboxamide], the IC50 is 126 nM.

On to `Cn1nccc1C(=O)N[C@H](C(=O)Nc1ccc(-c2ccc(=O)n(C)n2)c(F)c1)C(c1ccccc1)c1ccccc1` [Example 48, (S)—N-(1-((3-fluoro-4-(1-methyl-6-oxo-1,6-dihydropyridazin-3-yl)phenyl)amino)-1-oxo-3,3-diphenylpropan-2-yl)-1-methyl-1H-pyrazole-5-carboxamide], for which the IC50 is 158 nM.

Consider `Cn1nccc1C(=O)N[C@H](C(=O)Nc1ccc(-c2cc[n+]([O-])cc2CC(=O)N2CCCC2)cc1)C(c1ccccc1)c1ccccc1` [Example 79, (S)-4-(4-(2-(1-methyl-1H-pyrazole-5-carboxamido)-3,3-diphenylpropanamido)phenyl)-3-(2-oxo-2-(pyrrolidin-1-yl)ethyl)pyridine 1-oxide], for which the IC50 was 251 nM.

On to `Cn1nccc1C(=O)N[C@H](C(=O)Nc1ccc(-c2ccnc3[nH]ccc23)cc1)C(c1ccccc1)c1ccccc1` [Example 21, (S)—N-(1-((4-(1H-pyrrolo[2,3-b]pyridin-4-yl)phenyl)amino)-1-oxo-3,3-diphenylpropan-2-yl)-1-methyl-1H-pyrazole-5-carboxamide], for which the IC50 is 39.8 nM.

For the molecule `Cc1cncc(C)c1-c1ccc(NC(=O)[C@@H](NC(=O)c2ccnn2C)[C@H]2CC[C@H](C)CC2)nc1` [Example 90, N—((S)-2-((3′,5′-Dimethyl-[3,4′-bipyridin]-6-yl)amino)-1-((1r,4S)-4-methylcyclohexyl)-2-oxoethyl)-1-methyl-1H-pyrazole-5-carboxamide], the IC50 is 63.1 nM.

As to `CCn1nccc1C(=O)N[C@H](C(=O)Nc1ccc(-c2c(C)noc2C)c(F)c1)C(c1ccccc1)c1ccccc1` [Example 61, (S)—N-(1-((4-(3,5-dimethylisoxazol-4-yl)-3-fluorophenyl)amino)-1-oxo-3,3-diphenylpropan-2-yl)-1-ethyl-1H-pyrazole-5-carboxamide], the IC50 is 39.8 nM.
